This note sets out measurements from ChEMBL document CHEMBL5143605, “Discovery of 4-phenylindolines containing a (5-cyanopyridin-3-yl)methoxy moiety as potent inhibitors of the PD-1/PD-L1 interaction” (Bioorg Med Chem Lett, 2022).

Structures are written as SMILES. pIC50: −log10 of the molar value. Bounds are passed on as bounds.

By pIC50 is commonly meant the negative decadic logarithm of the IC50, by convention in mol/L. Higher therefore signals a low IC50.

The target of this test is Programmed cell death protein 1/Programmed cell death 1 ligand 1 (Homo sapiens, UniProt Q15116+Q9NZQ7). The experiment in a line: Inhibition of Tag2-PD1/Tag1-PD-L1 (unknown origin) protein-protein interaction preincubated for 15 mins followed by addition of anti-Tag1-Eu3+ and anti-Tag2-XL665 and measured after 2 hrs by HTRF analysis. It is filed as protein-complex assay.
Programmed cell death protein 1/Programmed cell death 1 ligand 1, sequence (Q15116 whole entry): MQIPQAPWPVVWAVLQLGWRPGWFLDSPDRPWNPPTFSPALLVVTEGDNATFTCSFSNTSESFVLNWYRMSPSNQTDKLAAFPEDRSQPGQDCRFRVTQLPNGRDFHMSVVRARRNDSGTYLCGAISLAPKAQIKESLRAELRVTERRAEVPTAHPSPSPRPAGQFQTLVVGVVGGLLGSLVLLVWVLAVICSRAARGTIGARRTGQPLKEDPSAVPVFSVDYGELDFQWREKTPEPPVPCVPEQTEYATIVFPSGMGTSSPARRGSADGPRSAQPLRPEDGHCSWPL
Programmed cell death protein 1/Programmed cell death 1 ligand 1, sequence (Q9NZQ7 whole entry): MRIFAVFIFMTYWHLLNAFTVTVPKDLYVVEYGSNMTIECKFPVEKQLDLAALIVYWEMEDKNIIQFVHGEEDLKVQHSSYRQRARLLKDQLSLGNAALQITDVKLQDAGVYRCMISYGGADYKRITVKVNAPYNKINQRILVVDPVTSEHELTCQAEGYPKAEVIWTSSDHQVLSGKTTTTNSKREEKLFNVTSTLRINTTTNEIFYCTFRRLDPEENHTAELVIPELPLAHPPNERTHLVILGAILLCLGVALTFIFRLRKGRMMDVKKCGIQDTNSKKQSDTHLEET
As to `COc1cc(C(=O)N2CCc3c(-c4ccccc4)cccc32)ccc1CNCCO`, the negative logarithm of the IC50 (pIC50) is 6.79.

`O=C(c1ccc(CNCCO)cc1)N1CCc2c(-c3cccc4[nH]ccc34)cccc21` showed a pIC50 of 6.20. `O=C(c1ccc(CNCCO)cc1)N1CCc2c(-c3ccc4nccnc4c3)cccc21`: the pIC50 was < 5.30.

As for `N#Cc1cncc(COc2cc(C(=O)N3CCc4c(-c5ccccc5)cccc43)ccc2CN2CC[C@H](C(=O)O)C2)c1`, the pIC50 is 7.27. Take `N#Cc1cncc(COc2cc(C(=O)N3CCc4c(-c5ccccc5)cccc43)ccc2CN2CC[C@H](CO)C2)c1`: the negative logarithm of the IC50 (pIC50) is 6.89. For `N#Cc1cncc(COc2cc(C(=O)N3CCc4c(-c5ccccc5)cccc43)ccc2CN2CCC[C@H]2C(=O)O)c1`, the pIC50 is 6.20. The molecule `N#Cc1cncc(COc2cc(C(=O)N3CCc4c(-c5ccccc5)cccc43)ccc2CNCCO)c1` showed a pIC50 of 7.06. To `CN(CCO)Cc1ccc(C(=O)N2CCc3c(-c4ccccc4)cccc32)cc1OCc1cncc(C#N)c1` belongs 7.22; to `O=C(c1ccc(CNCCO)cc1)N1CCc2c(-c3cnc4[nH]ccc4c3)cccc21`, 6.06.

The molecule `N#Cc1cc(COc2cc(C(=O)N3CCc4c(-c5ccccc5)cccc43)ccc2CNCCO)ccn1` had a negative logarithm of the IC50 (pIC50) of 6.98. As to `COCCNCc1ccc(C(=O)N2CCc3c(-c4ccccc4)cccc32)cc1OCc1cncc(C#N)c1`, the pIC50 was 6.60. On to `CC(=O)NCCNCc1ccc(C(=O)N2CCc3c(-c4ccccc4)cccc32)cc1OCc1ccnc(C#N)c1`, for which the pIC50 was 6.51.

Take `CC(=O)NCCNCc1ccc(S(=O)(=O)N2CCc3c(-c4ccccc4)cccc32)cc1`: the pIC50 is < 5.30. The molecule `CC(C)(CO)NCc1ccc(C(=O)N2CCc3c(-c4ccccc4)cccc32)cc1OCc1cncc(C#N)c1` showed a pIC50 of 6.94. `COc1cccc(-c2cccc3c2CCN3C(=O)c2ccc(CNCCO)cc2)n1`: the pIC50 is < 5.30.

For `O=C(c1ccc(CNCCO)cc1)N1CCc2c(-c3ccc4ocnc4c3)cccc21`, the pIC50 was 6.72. Turning to `O=C(c1ccc(CNCCO)cc1)N1CCc2c(-c3ccncc3)cccc21`, the pIC50 is < 5.30. As to `N#Cc1cncc(COc2cc(C(=O)N3CCc4c(-c5ccccc5)cccc43)ccc2CN2CC[C@@H](CO)C2)c1`, the pIC50 was 6.88. With `N#Cc1cncc(COc2cc(C(=O)N3CCc4c(-c5ccccc5)cccc43)ccc2CN2CC[C@@H](O)C2)c1` the figure was 6.91. For `N#Cc1cncc(COc2cc(C(=O)N3CCc4c(-c5ccccc5)cccc43)ccc2CNC2CCOCC2)c1`, the pIC50 is 6.42. Molecule `N#Cc1cncc(COc2cc(C(=O)N3CCc4c(-c5ccccc5)cccc43)ccc2CN2CC[C@H](O)C2)c1` showed a pIC50 of 7.13. The molecule `CC(=O)NCCNCc1ccc(C(=O)N2CCc3c(-c4ccccc4)cccc32)cc1OCc1cncc(C#N)c1` gave a pIC50 of 6.81. In the case of `CC(C)(CO)NCc1ccc(S(=O)(=O)N2CCc3c(-c4ccccc4)cccc32)cc1`, the pIC50 was < 5.30.

`CC(C)(CO)NCc1ccc(C(=O)N2CCc3c(-c4ccccc4)cccc32)cc1OCc1ccnc(C#N)c1`: the pIC50 is 6.64.
